Patent publication US4448962A, “Substituted quinoline carboxylic acid derivatives” (Kyorin Seiyaku Kabushiki Kaisha, priority 1978, dated 1984)
≈ marks a conversion by molar mass, not a printed value. Counter-ions that a name gives are not always drawn. Like-named read-outs stand apart in the source and are kept apart here.

Tests used:
Experiment in all cases: Antibacterial spectrum (Minimum Inhibitory Concentration)
Format in all cases: cell-based
Pr. vulgaris XK Denken = conditions: Proteus vulgaris, read-out: Minimum Inhibitory Concentration
Source text: (§1) The antibacterial tests were done according to the method authorized by the Chemotherapeutic Society of Japan.

[1] = tested on: Proteus vulgaris IFO 3167
Source text: as §1

[2] = tested on: Pseudomonas aeruginosa V-1
Source text: as §1

Sta. aureus ATCC 14775 = conditions: Staphylococcus aureus
Source text: as §1

[3] = tested on: Escherichia coli NIHJ JC-2
Source text: as §1

Ps. aeruginosa IFO 12689 = conditions: Pseudomonas aeruginosa
Source text: as §1

[4] = tested on: Klebsiella pneumoniae IFO 3512
Source text: as §1

E. coli ATCC 10536 = conditions: Escherichia coli
Source text: as §1

[5] = tested on: Staphylococcus aureus 209P; conditions: read-out: Minimum Inhibitory Concentration
Source text: as §1

[6] = tested on: Bacillus subtilis PCI 219
Source text: as §1

Ps. aeruginosa IID 1210 = conditions: Pseudomonas aeruginosa, IID1210, read-out: Minimum Inhibitory Concentration
Source text: as §1

Ps. aeruginosa IID 1130 = conditions: Pseudomonas aeruginosa, IID1130, read-out: Minimum Inhibitory Concentration
Source text: as §1

[7] = IFO3167, Proteus vulgaris IFO 3167, Gram -, read-out: Minimum Inhibitory Concentration
[8] = V1, Pseudomonas aeruginosa V-1, Gram -, read-out: Minimum Inhibitory Concentration
[9] = ATCC14775, Sta. aureus ATCC 14775, Gram +, read-out: Minimum Inhibitory Concentration
[10] = NIHJJC2, Escherichia coli NIHJ JC-2, Gram -, read-out: Minimum Inhibitory Concentration
[11] = IFO12689, Ps. aeruginosa IFO 12689, Gram -, read-out: Minimum Inhibitory Concentration
[12] = IFO3512, Klebsiella pneumoniae IFO 3512, Gram -, read-out: Minimum Inhibitory Concentration
[13] = ATCC10536, E. coli ATCC 10536, Gram -, read-out: Minimum Inhibitory Concentration
[14] = Staphylococcus aureus 209P, Gram +
[15] = PCI219, Bacillus subtilis PCI 219, Gram +, read-out: Minimum Inhibitory Concentration
[16] = IFO12689, read-out: Minimum Inhibitory Concentration
[17] = Proteus vulgaris, IFO3167, read-out: Minimum Inhibitory Concentration
[18] = Pseudomonas aeruginosa, V1, read-out: Minimum Inhibitory Concentration
[19] = ATCC14775, read-out: Minimum Inhibitory Concentration
[20] = Escherichia coli, NIHJJC2, read-out: Minimum Inhibitory Concentration
[21] = Klebsiella pneumoniae, IFO3512, read-out: Minimum Inhibitory Concentration
[22] = ATCC10536, read-out: Minimum Inhibitory Concentration
[23] = Bacillus subtilis, PCI219, read-out: Minimum Inhibitory Concentration

| SMILES | MIC (Pr. vulgaris XK Denken; Pr. vulgaris XK Denken, Gram -) [µg/mL] | MIC [1, 7] [µg/mL] | MIC [2, 8] [µg/mL] | MIC (Sta. aureus ATCC 14775; [9]) [µg/mL] | MIC [3, 10] [µg/mL] | MIC (Ps. aeruginosa IFO 12689; [11]) [µg/mL] | MIC [4, 12] [µg/mL] | MIC (E. coli ATCC 10536; [13]) [µg/mL] | MIC [5, 14] [µg/mL] | MIC [6, 15] [µg/mL] | MIC (Ps. aeruginosa IFO 12689; [16]) [µg/mL] | further results |
| --- | --- | --- | --- | --- | --- | --- | --- | --- | --- | --- | --- | --- |
| CCn1cc(C(=O)O)c(=O)c2cc(F)c(N3CCN(N=O)CC3)cc21 [Example 24, 1-ethyl-6-fluoro-7-(4-nitroso-1-piperazinyl)-4-oxo-1,4-dihydroquinoline-3-carboxylic acid] | 0.39 (≈ 1.12 µM) | 0.39 (≈ 1.12 µM) | 3.13 (≈ 8.99 µM) | 0.78 (≈ 2.24 µM) | 0.39 (≈ 1.12 µM) | 6.25 (≈ 17.9 µM) | 0.39 (≈ 1.12 µM) | 0.39 (≈ 1.12 µM) | 0.39 (≈ 1.12 µM) | 0.39 (≈ 1.12 µM) |  |  |
| O=C(O)c1cn(Cc2ccccc2)c2cc(N3CCNCC3)c(F)cc2c1=O [Example 20, 1-benzyl-6-fluoro-1,4-dihydro-4-oxo-7-(1-piperazinyl)-quinoline-3-carboxylic acid] | 0.78 (≈ 2.05 µM) | 0.39 (≈ 1.02 µM) | 1.56 (≈ 4.09 µM) | 6.25 (≈ 16.4 µM) | 0.78 (≈ 2.05 µM) |  | 0.39 (≈ 1.02 µM) | 0.39 (≈ 1.02 µM) | 1.56 (≈ 4.09 µM) | 0.78 (≈ 2.05 µM) | 6.25 (≈ 16.4 µM) |  |
| Cl.Cn1cc(C(=O)O)c(=O)c2cc(F)c(N3CCNCC3)cc21 [Example 18, 1-methyl-6-fluoro-7-(1-piperazinyl)-4-oxo-1,4-dihydroquinoline-3-carboxylic acid hydrochloride] |  |  |  |  |  |  |  |  |  |  | 3.13 | MIC (Pr. vulgaris XK Denken): 1.56 µg/mL; MIC [1, 17]: 0.39 µg/mL; MIC [2, 18]: 1.56 µg/mL; MIC (Sta. aureus ATCC 14775; [19]): 12.5 µg/mL; MIC [3, 20]: 0.39 µg/mL; MIC [4, 21]: 0.39 µg/mL; MIC (E. coli ATCC 10536; [22]): 0.39 µg/mL; MIC ([5]; Staphylococcus aureus, 209P): 6.25 µg/mL; MIC [6, 23]: 0.78 µg/mL |
| C=Cn1cc(C(=O)O)c(=O)c2cc(F)c(N3CCNCC3)cc21.Cl [Example 3, 1-vinyl-6-fluoro-7-(1-piperazinyl)-4-oxo-1,4-dihydro-quinoline-3-carboxylic acid hydrochloride] |  |  |  |  |  |  |  |  |  |  | 1.56 | MIC (Pr. vulgaris XK Denken): 0.39 µg/mL; MIC (Ps. aeruginosa IID 1210): 1.56 µg/mL; MIC [1, 17]: 0.2 µg/mL; MIC [2, 18]: 0.39 µg/mL; MIC (Sta. aureus ATCC 14775; [19]): 6.25 µg/mL; MIC [3, 20]: 0.1 µg/mL; MIC (Ps. aeruginosa IID 1130): 1.56 µg/mL; MIC [4, 21]: 0.1 µg/mL; MIC (E. coli ATCC 10536; [22]): 0.1 µg/mL; MIC ([5]; Staphylococcus aureus, 209P): 3.13 µg/mL; MIC [6, 23]: 0.39 µg/mL |
| CCn1cc(C(=O)O)c(=O)c2cc(F)c(N3CCN(C(C)=O)CC3)cc21 [Example 29, 1-ethyl-6-fluoro-1,4-dihydro-4-oxo-7-(4-acetyl-1-piperazinyl)quinoline-3-carboxylic acid] | 1.56 (≈ 4.32 µM) | 0.39 (≈ 1.08 µM) | 25 (≈ 69.2 µM) | 1.56 (≈ 4.32 µM) | 1.56 (≈ 4.32 µM) | 25 (≈ 69.2 µM) | < 0.1 | 1.56 (≈ 4.32 µM) | 0.78 (≈ 2.16 µM) | 0.2 (≈ 0.553 µM) |  |  |
| CCn1cc(C(=O)O)c(=O)c2cc(Cl)c(N3CCN(Cc4ccccc4)CC3)cc21 [Example 11, 1-ethyl-6-chloro-7-(4-benzyl-1-piperazinyl)-4-oxo-1,4-dihydroquinoline-3-carboxylic acid] | 50 (≈ 117 µM) | 100 (≈ 235 µM) |  |  | 100 (≈ 235 µM) | > 100 | 0.78 (≈ 1.83 µM) | 25 (≈ 58.7 µM) | 3.13 (≈ 7.35 µM) | 1.56 (≈ 3.66 µM) |  | MIC [2, 18]: > 100 µg/mL |
| CC(=O)N1CCN(c2cc3c(cc2F)c(=O)c(C(=O)O)cn3CCO)CC1 [Example 26, 1-(2-hydroxyethyl)-6-fluoro-7-(4-acetyl-1-piperazinyl)-4-oxo-1,4-dihydroquinoline-3-carboxylic acid] | > 25 | > 25 | > 25 | > 25 | > 25 | > 25 | 6.25 (≈ 16.6 µM) | 25 (≈ 66.2 µM) | > 25 | 12.5 (≈ 33.1 µM) |  |  |
| C=CCn1cc(C(=O)O)c(=O)c2cc(F)c(N3CCNCC3)cc21 [Example 21, hydrochloride] | 0.39 | 0.2 | 1.56 | 6.25 | 0.2 |  | 0.2 | 0.2 | 3.13 | 0.78 | 6.25 |  |
| CCOC(=O)c1cn(CC)c2cc(N3CCNCC3)c(F)cc2c1=O [Example 17, 1-ethyl-6-fluoro-7-(1-piperazinyl)-4-oxo-1,4-dihydroquinoline-3-carboxylicacid ethyl ester] | 25 (≈ 72 µM) | 12.5 (≈ 36 µM) | 50 (≈ 144 µM) | 100 (≈ 288 µM) | 12.5 (≈ 36 µM) | > 100 | 6.25 (≈ 18 µM) | 6.25 (≈ 18 µM) | 50 (≈ 144 µM) | 50 (≈ 144 µM) |  |  |
| CCn1cc(C(=O)O)c(=O)c2cc(Cl)c(N3CCN(C)CC3)cc21 [Example 9, 1-ethyl-6-chloro-7-(4-methyl-1-piperazinyl)-4-oxo-1,4-dihydro-quinoline-3-carboxylic acid] | 0.78 (≈ 2.23 µM) | 0.78 (≈ 2.23 µM) | 25 (≈ 71.5 µM) |  | 1.56 (≈ 4.46 µM) | 50 (≈ 143 µM) |  | 0.78 (≈ 2.23 µM) | 1.56 (≈ 4.46 µM) | 0.78 (≈ 2.23 µM) |  | MIC [4, 21]: < 0.2 µg/mL |
| CCCn1cc(C(=O)O)c(=O)c2cc(F)c(N3CCNCC3)cc21 [Example 19, 1-propyl-6-fluoro-7-(1-piperazinyl)-4-oxo-1,4-dihydroquinoline-3-carboxylic acid hydrochloride] | 0.39 | 0.2 | 3.13 | 3.13 | 0.2 | 12.5 | 0.2 | 0.39 | 1.56 | 0.39 |  |  |
| CCn1cc(C(=O)O)c(=O)c2ccc(N3CCNCC3)c(F)c21 [Example 16, 1-ethyl-7-(1-piperazinyl)-8-fluoro-4-oxo-1,4-dihydroquinoline-3-carboxylicacid hydrochloric] | 1.56 (≈ 4.89 µM) | 0.78 (≈ 2.44 µM) | 1.56 (≈ 4.89 µM) | 25 (≈ 78.3 µM) | 0.78 (≈ 2.44 µM) | 12.5 (≈ 39.1 µM) | 0.2 (≈ 0.626 µM) | 0.78 (≈ 2.44 µM) | 12.5 (≈ 39.1 µM) | 3.13 (≈ 9.8 µM) |  |  |
| CCn1cc(C(=O)O)c(=O)c2cc(Cl)c(N3CCN(C(=O)C(F)(F)F)CC3)cc21 [Example 12, 1-ethyl-6-chloro-7-(4-trifluoroacetyl-1-piperazinyl)-4-oxo-1,4-dihydroquinoline-3-carboxylic acid] | 0.78 (≈ 1.81 µM) | 0.78 (≈ 1.81 µM) | 25 (≈ 57.9 µM) |  |  | 50 (≈ 116 µM) | 0.78 (≈ 1.81 µM) | 0.78 (≈ 1.81 µM) | 1.56 (≈ 3.61 µM) | 0.78 (≈ 1.81 µM) |  | MIC [3, 20]: 3.13 µg/mL (≈ 7.25 µM) |
| CCn1cc(C(=O)O)c(=O)c2cc(Cl)c(N3CCN(C4OC(=O)c5ccccc54)CC3)cc21 (centres unmarked) [Example 15, 1-ethyl-6-chloro-7-(4-phthalidyl-1-piperazinyl)-4-oxo-1,4-dihydroquinoline-3-carboxylic acid] | 0.39 (≈ 0.833 µM) | 0.39 (≈ 0.833 µM) | 6.25 (≈ 13.4 µM) |  | 0.2 (≈ 0.427 µM) | 12.5 (≈ 26.7 µM) | 0.78 (≈ 1.67 µM) | 0.2 (≈ 0.427 µM) | 1.56 (≈ 3.33 µM) | 0.78 (≈ 1.67 µM) |  |  |
| CCN1CCN(c2cc3c(cc2F)c(=O)c(C(=O)O)cn3CC)CC1 [Example 2, 1-ethyl-6-fluoro-7-(4-ethyl-1-piperazinyl)-4-oxo-1,4-dihydroquinoline-3-carboxylic acid] | 0.2 (≈ 0.576 µM) | 0.2 (≈ 0.576 µM) | 3.13 (≈ 9.01 µM) |  | 0.1 (≈ 0.288 µM) |  | < 0.025 | 0.1 (≈ 0.288 µM) |  |  | 6.25 (≈ 18 µM) |  |
| CCN1CCN(c2cc3c(cc2Cl)c(=O)c(C(=O)O)cn3CC)CC1 [Example 10, 1-ethyl-6-chloro-7-(4-ethyl-1-piperazinyl)-4-oxo-1,4-dihydroquinoline-3-carboxylic acid] | 1.56 (≈ 4.29 µM) | 1.56 (≈ 4.29 µM) | 50 (≈ 137 µM) |  | 1.56 (≈ 4.29 µM) | > 100 | < 0.2 | 0.78 (≈ 2.14 µM) | 0.78 (≈ 2.14 µM) | 0.78 (≈ 2.14 µM) |  |  |
| Cl.O=C(O)c1cn(CCO)c2cc(N3CCNCC3)c(F)cc2c1=O [Example 25, 1-(2-hydroxyethyl)-6-fluoro-7-(1-piperazinyl)-4-oxo-1,4-dihydroquinoline-3-carboxylic acid hydrochloride] |  |  |  |  |  |  |  |  |  |  | > 25 | MIC (Pr. vulgaris XK Denken): 3.13 µg/mL; MIC [1, 17]: 0.2 µg/mL; MIC [2, 18]: 3.13 µg/mL; MIC (Sta. aureus ATCC 14775; [19]): > 25 µg/mL; MIC [3, 20]: 0.39 µg/mL; MIC [4, 21]: 0.05 µg/mL; MIC (E. coli ATCC 10536; [22]): 0.2 µg/mL; MIC ([5]; Staphylococcus aureus, 209P): 1.56 µg/mL; MIC [6, 23]: 1.56 µg/mL |
